The values that follow come from US9353082B2, “Pharmaceutical compounds” (BIAL—PORTELA & CA, S.A., priority 2008, dated 2016).

Molecules are shown by their SMILES. Counter-ions that a name gives are not always drawn.

For assay [1], the target named is T1, FAAH (Mus musculus, UniProt O08914).
T1 construct: A fragment of liver, left lung lobe and brain without cerebellum were removed; from tissue; host or cells: male NMRI mice; brain (without cerebellum) and liver homogenates
T1 sequence (O08914 1-579): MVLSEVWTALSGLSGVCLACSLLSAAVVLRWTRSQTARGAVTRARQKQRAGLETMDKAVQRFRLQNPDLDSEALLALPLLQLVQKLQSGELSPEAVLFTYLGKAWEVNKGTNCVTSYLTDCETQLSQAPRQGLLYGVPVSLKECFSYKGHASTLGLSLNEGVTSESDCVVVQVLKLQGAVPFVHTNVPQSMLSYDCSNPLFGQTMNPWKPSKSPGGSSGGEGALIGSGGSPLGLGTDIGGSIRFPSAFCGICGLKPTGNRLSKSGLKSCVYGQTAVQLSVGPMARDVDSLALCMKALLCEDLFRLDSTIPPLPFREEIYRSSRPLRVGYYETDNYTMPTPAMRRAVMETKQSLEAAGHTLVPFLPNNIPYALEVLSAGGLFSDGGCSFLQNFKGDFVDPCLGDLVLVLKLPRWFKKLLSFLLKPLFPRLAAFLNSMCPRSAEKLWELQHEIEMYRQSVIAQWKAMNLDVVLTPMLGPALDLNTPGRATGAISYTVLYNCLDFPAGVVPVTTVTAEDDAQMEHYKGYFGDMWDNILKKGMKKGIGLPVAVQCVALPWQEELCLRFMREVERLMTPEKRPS
Nature of the assay: In vivo FAAH inhibition after oral dosing, remaining activity in brain homogenate (BRh, central nervous tissue). Set-up: species or system NMRI mice. The following applies: brain homogenate, 3 mg/kg, 8 h after dosing; low value = strong inhibitor. Here is the method:
(§1) The in vivo test was performed according to the protocol described below. BRh indicates inhibition in central nervous tissue and LVh indicates inhibition in peripheral tissue, in this case liver.
(§2) The animals used for experiments were male NMRI mice (weighing 27-44 g) obtained from Interfauna Ibérica (Spain). Mice were kept 5 per cage, under controlled environmental conditions (12 hr light/dark cycle and room temperature 22±1° C.). Food and tap water were allowed ad libitum and the experiments were all carried out during daylight hours.
(§3) Animals were administered 30 mg/kg or 3 mg/kg compounds of the invention via oral route (8 ml/kg; compound suspended in 0.5% carboxymethylcellulose (CMC) or solubilized in water) or vehicle (controls) using animal feeding stainless steel curve needles (Perfectum, U.S.A.). Fifteen minutes before sacrifice animal were anesthetized with pentobarbital 60 mg/kg administered intraperitoneally. A fragment of liver, left lung lobe and brain without cerebellum were removed and put in plastic vials containing membrane buffer (3 mM MgCl2, 1 mM EDTA, 50 mM Tris HCl pH 7.4). Tissues were stored at −30° C. until analysis.
(§4) Animals were always fasted overnight before administration of compounds except for time points of >18 h, where food was removed on the morning of day of administration and the compound was administered in the afternoon of the same day. Animals were then given water but nothing else.
(§5) Tissues were thawed on ice and were homogenized in 10 volumes of membrane buffer (3 mM MgCl2, 1 mM EDTA, 50 mM Tris HCl pH 7.4) with either Potter-Elvejhem (brains—8 strokes at 500 rpm) or Heidolph Diax (livers—2 strokes at position 5 for 20 sec with 30 sec pauses).
(§6) Total protein in tissues was determined with the BioRad Protein Assay (BioRad) using a standard curve of BSA (50-250 μg/ml).
(§7) Reaction mix (total volume of 200 μl) contained: […] (2 μM AEA+5 nM ^3H-AEA), 0.1% fatty acid free BSA, 15 μg (brain), 5 μg (liver) or 50 μg (lung) protein, in 1 mM EDTA, 10 mM Tris pH 7.6. After a […] pre-incubation period at 37° C., reaction was started by the addition of the substrate solution (cold AEA+radiolabelled AEA+BSA). Reaction was carried out for 10 min (brain and lung) or […] (liver) before termination by the addition of 400 μl activated charcoal suspension (8 g charcoal in 32 ml 0.5 M HCl in continuous agitation). After a […] incubation period at room temperature with agitation, charcoal was sedimented by centrifugation in microfuge (10 min at 13000 rpm). 200 μl of the supernatant were added to 800 μl Optiphase Supermix scintillation cocktail previously distributed in 24-well plates. Counts per minute (cpm) were determined in a MicrobetaTriLux scintillation counter.
(§8) In each assay blanks (without protein) were prepared.
(§9) The percentage of remaining enzymatic activity was calculated in respect to controls and after blank subtraction.

Assay [2] concerns the target T1, FAAH. The assay can be described thus: In vivo FAAH inhibition after oral dosing, remaining activity in liver homogenate (LVh, peripheral tissue). The following applies: liver homogenate, 3 mg/kg, 8 h after dosing; low value = strong inhibitor. Set-up: species or system NMRI mice. Here is the method:
as §1, §2, §3, §4, §5, §6, §7, §8, §9

Assay [3] has as its target T2, FAAH (Rattus norvegicus, UniProt P97612).
T2 construct: Frozen brains (without cerebellum) from Wistar rats were used; from tissue; host or cells: Wistar rat brain (without cerebellum), washed membrane pellets
T2 sequence (P97612 1-579): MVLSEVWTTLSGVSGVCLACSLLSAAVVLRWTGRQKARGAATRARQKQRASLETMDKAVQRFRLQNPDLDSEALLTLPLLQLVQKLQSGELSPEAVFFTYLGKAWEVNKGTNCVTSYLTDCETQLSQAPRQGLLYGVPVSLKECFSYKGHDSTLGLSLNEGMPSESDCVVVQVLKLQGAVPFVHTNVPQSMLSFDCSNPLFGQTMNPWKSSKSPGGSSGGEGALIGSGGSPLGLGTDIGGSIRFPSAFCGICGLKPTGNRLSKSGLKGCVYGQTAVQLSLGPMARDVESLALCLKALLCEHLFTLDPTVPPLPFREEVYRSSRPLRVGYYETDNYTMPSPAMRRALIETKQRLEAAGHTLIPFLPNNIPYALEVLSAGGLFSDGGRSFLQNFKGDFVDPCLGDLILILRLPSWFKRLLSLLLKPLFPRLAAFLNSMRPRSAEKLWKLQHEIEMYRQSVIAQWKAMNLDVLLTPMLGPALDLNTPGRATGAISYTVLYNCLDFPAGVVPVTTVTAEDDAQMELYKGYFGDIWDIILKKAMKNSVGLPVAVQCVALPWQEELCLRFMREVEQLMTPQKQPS
Nature of the assay: In vitro FAAH activity in rat brain membranes, 3H-AEA substrate, % of control. In kind it is biochemical, Wistar rats. Particulars: low value = strong inhibitor; for In Vitro FAAH activity, 100 nM: 100 nM test compound; for In Vitro FAAH activity, 10 uM: 10 uM test compound. Put shortly:
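FAAH activity measured as 3H-ethanolamine released from 2 μM [3H]AEA over 10 min by rat brain membrane preparation, after 15 min 37 °C preincubation with test compound at 10 or 0.1 μM. Charcoal-separated supernatant scintillation-counted; values expressed as % of control minus no-protein blank.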

Take `COc1ccc(-c2cn(C(=O)N(C)C3CCOCC3)cn2)cc1N` [Compound no. 468, 4-(3-amino-4-methoxyphenyl)-N-methyl-N-(tetrahydro-2H-pyran-4-yl)-1H-imidazole-1-carboxamide]: the “In Vivo BRh 3 mg·kg 8 h (remaining FAAH activity, % of control)” value in assay [1] is listed as 4.7 % of control. Also, the “In Vivo LVh 3 mg·kg 8 h (remaining FAAH activity, % of control)” value in assay [2] is recorded as 4.3 % of control.
For `CC1(C)OC(c2ccccc2)CN1C(=O)n1cnc(-c2ccccc2)c1` (stereo not shown) [Compound 298, (2,2-dimethyl-5-phenyloxazolidin-3-yl)(4-phenyl-1H-imidazol-1-yl)methanone], in that order: 74.4 % of control and 59.2 % of control.
Consider `CN(C)c1ccc(-c2cn(C(=O)N(C)C3CCCCC3)cn2)cc1N` [Compound no. 447, 4-(3-amino-4-(dimethylamino)phenyl)-N-cyclohexyl-N-methyl-1H-imidazole-1-carboxamide], for which, in assay [1], the “In Vivo BRh 3 mg·kg 8 h (remaining FAAH activity, % of control)” value was 11.8 % of control. Moreover, the “In Vivo LVh 3 mg·kg 8 h (remaining FAAH activity, % of control)” value in assay [2] was 6.5 % of control.
In the same order, the values of `CN(C(=O)n1cnc(-c2ccc(O)cc2)c1)C1CCCC1` [Compound 294, N-cyclopentyl-4-(4-hydroxyphenyl)-N-methyl-1H-imidazole-1-carboxamide] are 1.4 % of control and 1.4 % of control.
Regarding `CN(C(=O)n1cnc(-c2cccc(OCc3ccccc3)c2)c1)C12CC3CC(CC(C3)C1)C2` [Compound 288, 4-[3-(benzyloxy)phenyl]-N-methyl-N-tricyclo[3.3.1.13,7]dec-1-yl-1H-imidazole-1-carboxamide], the “In Vitro 100 nM (FAAH activity, % of control)” value in assay [3] (rat brain membranes, compound at 100 nM) was 114.8 % of control.
Regarding `COc1ccc(NC(=O)n2nnc3ccccc32)cc1` [Compound 57, N-(4-methoxyphenyl)-1H-benzo[d][1,2,3]triazole-1-carboxamide], the “In Vitro FAAH activity, 100 nM” value in assay [3] is reported as 96.9 % of control.
On the same count and under the same terms, next, `CN(C(=O)n1nnc2cc(-c3ccc(F)cc3)ccc21)C1CCCCC1` [Compound 96, N-cyclohexyl-5-(4-fluorophenyl)-N-methyl-1H-benzo[d][1,2,3]triazole-1-carboxamide]: 14.3 % of control; `O=C(N1CCS(=O)(=O)C1)n1cnc(-c2ccc(Cl)cc2)n1` [Compound 253, 3-(4-chlorophenyl)-1-[(1,1-dioxido-1,3-thiazolidin-3-yl)carbonyl]-1H-1,2,4-triazole]: 107.7 % of control.
Consider `O=C(Nc1ccccc1)n1ccc(-c2ccc(-c3ccccc3)cc2)n1` [Compound 20, 3-(biphenyl-4-yl)-N-phenyl-1H-pyrazole-1-carboxamide], for which the “In Vitro FAAH activity, 10 uM” value in assay [3] was 97.3 % of control.
As to `CN(Cc1cccc(Cl)c1)C(=O)n1nnc2ccccc21` [Compound 123, N-(3-chlorobenzyl)-N-methyl-1H-benzo[d][1,2,3]triazole-1-carboxamide], in assay [3], the “In Vitro FAAH activity, 100 nM” value was 0 % of control.
Regarding `O=C(N1CCOCC1)n1ccc(-c2cccnc2)n1` [Compound 21, morpholino(3-(pyridin-3-yl)-1H-pyrazol-1-yl)methanone hydrochloride], the “In Vitro FAAH activity, 10 uM” value in assay [3] is on record as 79.1 % of control.
Turning to `CN(C(=O)n1cnc(-c2ccc(Cl)cc2)c1)c1ccc(F)cc1` [Compound 43, 4-(4-chlorophenyl)-N-(4-fluorophenyl)-N-methyl-1H-imidazole-1-carboxamide], in assay [3], the “In Vitro FAAH activity, 100 nM” value was 88 % of control and the “In Vitro FAAH activity, 10 uM” value is on record as 0.1 % of control.
Regarding `CN(CCCc1ccccc1)C(=O)n1nnc2ccccc21` [Compound 118, N-methyl-N-(3-phenylpropyl)-1H-benzo[d][1,2,3]triazole-1-carboxamide], in assay [3], the “In Vitro FAAH activity, 100 nM” value is 0 % of control.
Same read-out and setting: next, `CCN(CCOCc1ccccc1)C(=O)n1nnc2ccccc21` [Compound 202, N-(2-(benzyloxy)ethyl)-N-ethyl-1H-benzo[d][1,2,3]triazole-1-carboxamide]: 0.1 % of control.
On the same count and under the same terms, to `COc1ccc(-c2ncn(C(=O)N(C)c3ccc(F)cc3)n2)cc1` [Compound 66, N-(4-fluorophenyl)-3-(4-methoxyphenyl)-N-methyl-1H-1,2,4-triazole-1-carboxamide] belongs 80.9 % of control; to `CN1CCN(C2CCN(C(=O)n3nnc4ccccc43)CC2)CC1.Cl` [Compound 122, (1H-benzo[d][1,2,3]triazol-1-yl)(4-(4-methylpiperazin-1-yl)piperidin-1-yl)methanone hydrochloride], 93 % of control; to `CN(C(=O)n1cnc(-c2ccc(Cl)cc2)n1)c1ccc(F)cc1` [Compound 69, 3-(4-chlorophenyl)-N-(4-fluorophenyl)-N-methyl-1H-1,2,4-triazole-1-carboxamide], 80.8 % of control.
The same measure, in the same setting: to `CN(Cc1ccc(F)cc1)C(=O)n1nnc2ccccc21` [Compound 130, N-(4-fluorobenzyl)-N-methyl-1H-benzo[d][1,2,3]triazole-1-carboxamide] belongs 0 % of control; to `O=C(N1CCC(OCc2ccccc2)CC1)n1nnc2ccccc21` [Compound 128, (1H-benzo[d][1,2,3]triazol-1-yl)(4-(benzyloxy)piperidin-1-yl)methanone], 0 % of control; to `CN(C)c1ccc(N(C)C(=O)n2nnc3ccccc32)cc1` [Compound 81, N-(4-(dimethylamino)phenyl)-N-methyl-1H-benzo[d][1,2,3]triazole-1-carboxamide], 49.2 % of control.
